Results on four substances are retold here after patent publication EP0173527A2, “Insulin-selective somatostatin analogs” (THE SALK INSTITUTE FOR BIOLOGICAL STUDIES, priority 1984, dated 1986).

Assay [1] relates to cells of rat pituitary glands. Put plainly: in vitro radioimmunoassay of growth hormone release from cultured rat pituitary cells, side-by-side comparison with somatostatin-14. Type of assay: cell-based. The note with it: for biological activity / potency: comparative in vitro testing, compared with aSS-28. How it is done: To determine the effectiveness of the peptides to inhibit the release of […], in vitro radioimmunoassays are carried out using aSS-28, [Lys^23]-aSS-28 and aSS(15-28) in side-by-side comparison with equimolar concentrations of somotostatin-14 having a known effectiveness to inhibit the release of growth hormone induced by the application of isobutyl methyl xanthine to pituitary cells. Cultures are used which include cells of rat pituitary glands removed some four to five days previously in a system that minimizes enzymatic degradation, generally following the procedure set forth in Vale et al., Methods in Enzymology, Hormones and Cyclic Nucleotides (1975) Vol. 37, p. 82. Both cultures of a defined standard medium and cultures which are considered optimal for the secretion of growth hormone, as a result of having additions of either 2% or 10% of serum from a foetal calf, are used for the comparative testing.

For assay [2] the following is noted: synthetic SS-28; Pradayrol et al., FEBS Letters 109, 1980; cited from earlier work.
Assay [3] has as its system secretion of glucagon and insulin. Put plainly: in vivo inhibition of insulin (and glucagon) secretion, potency relative to somatostatin-14. The note with it: basal and stimulated insulin secretion in mammals, including humans and dogs; compared with somatostatin-14 and somatostatin-28. Set-up: species or system rats. How it is done: In vivo experiments are carried out with aSS-28, using the procedure described in Brown et al., Metabolism (1976) Vol. 25, pp. 1501-1503, to determine the potency, relative to somatostatin-14, to inhibit the secretion of glucagon and insulin stimulated by the administration of arginine to groups of rats.

“Also recorded” adds a separate entry of the source. Positions of bridges follow the written chain, without caps; N, C: chain ends.

As to “H-Ala-Gly-Cys-Lys-Asn-Phe-Tyr-Trp-Hyl-Gly-Phe-Thr-Ser-Cys-OH [aSS(15-28)]”, the “biological activity / potency” value in assay [1] is on record as “similarly biologically active although having somewhat lower potencies”.

On to “H-Ser-Ala-Asn-Ser-Asn-Pro-Ala-Met-Ala-Pro-Arg-Glu-Arg-Lys-Ala-Gly-Cys-Lys-Asn-Phe-Phe-Trp-Lys-Thr-Phe-Thr-Ser-Cys-OH [SS-28]”, for which the “potency when administered in vivo” value in assay [2] is listed as “increased potency”.

Turning to “H-Ser-Val-Asp-Ser-Thr-Asn-Asn-Leu-Pro-Pro-Arg-Glu-Arg-Lys-Ala-Gly-Cys-Lys- Asn-Phe-Tyr-Trp-Lys-Gly-Phe-Thr-Ser-Cys-OH (H-SVDSTNNLPPRERKAGCKNFYWKGFTSC-OH; disulfide 17-28 (inferred); ends not checked) [[Lys 23]-aSS-28]”, the “biological activity / potency” value in assay [1] was “similarly biologically active although having somewhat lower potencies”.

In the case of “H-Ser-Val-Asp-Ser-Thr-Asn-Asn-Leu-Pro-Pro-Arg-Glu-Arg-Lys-Ala-Gly-Cys-Lys-Asn-Phe-Tyr-Trp-Hyl-Gly-Phe-Thr-Ser-Cys-OH [aSS-28]”, the insulin-selectivity result in assay [1] (inferred from GH inhibition compared with SS-14) is on record as “likely insulin-selective; also recorded: extreme insulin-selectivity”. The “inhibition of GH” value in assay [1] (release of growth hormone induced by isobutyl methyl xanthine, compared with equimolar SS-14) is reported as “substantially less than SS-14”. In assay [3], the “potency to inhibit insulin secretion” value is recorded as “increased potency; also recorded: more potent than either somatostatin-14 or somatostatin-28”.
